Results published in patent US20110008463A1, “COMBINATIONS OF HYDROXYPYRION COMPOUNDS AND SILVER COMPOUNDS” (priority 2008, published 2011).

Key:
Chaetomium globosum = assay: Poison Plate Assay (fungi, Glucose Agar); format: cell-based; conditions: Chaetomium globosum ATCC6205, ppm total active ingredient, 27° C., growth evaluated after two weeks, label = % (I-e) + % nano-silver
Protocol: (§1) Test models: • Fungi: to each well of a 24-well microtiter plate, 1000 μl of Glucose Agar (GA: 10 g glucose, 1.5 g K2HPO4, 2 g KH2PO4, 1 g (NH4)2SO4, 0.5 g MgSO4 and 12.5 g agar in 1 liter deionised water) containing the appropriate combination of the test compounds in one of the concentrations of a dose series is added. The nutrient medium is inoculated with the test fungi by adding a spore/mycelium suspension (10 μl) or a small piece of agar from the margin of an actively growing colony and incubated under dark at 27° C. with 70% relative humidity. The growth of the fungi is evaluated after two weeks. • Glucose agar is used here instead of PDA (Potato Dextrose Agar), as an alternative, poorer medium for the fungi, in order to increase the chances of detecting activity in compounds whose mode of action might be circumvented by fungi on a […]). Moreover, a richer organic medium has more potential to complex and inactivate antibacterial silver ions (Lasater et al. 1999, Weissbuch et al. 2002). • Bacteria : to each well of a 24-well microtiter plate, 1000 μL Tryptose Agar (TA, 20 g bacto tryptose agar, 5 g sodium chloride, 1 g bacto dextrose and 15 g agar in l liter deionised water), containing the test compounds in one of the concentrations of a dose series is added. […] Growth is evaluated after five days. […]

Ulocladium atrum = assay: Poison Plate Assay (fungi, Glucose Agar); format: cell-based; conditions: Ulocladium atrum IMI214699a, ppm total active ingredient, 27° C., growth evaluated after two weeks, label = % (I-e) + % nano-silver
Protocol: as §1

## Cc1cc(CC(C)CC(C)(C)C)n(O)c(=O)c1.NCCO (centres unmarked) [100 + 0, piroctone olamine]
Chaetomium globosum
  MIC-values (minimum inhibitory concentration) in ppm: 3.16 ppm
Ulocladium atrum
  MIC-values (minimum inhibitory concentration) in ppm: 3.16 ppm
